For one data set, the system named is TK090. The data set can be described thus: Complementation of NAD+ auxotrophic strain. The format is cell-based, E. coli. Conditions: for concentration needed to support growth as NAD+ source: TK090[pSsuABC, pPnGGT*]; for growth with compound as sole source of NAD+: spent MS minimal medium, 25 μM N-picolyl-sulfobutyramide, different plasmid combinations. Here is the method:
FIG. 27. Utilization of NAD^+ precursors. NAD^+ auxotrophic strain TK090 [pSsuABC; pPnGGT*] was grown in MS minimal medium containing 0.5% glucose, 1 mM MgSO4, 0.4 mM leucine, 0.5 mM IPTG, 100 ng ml^−1 aTc and varying concentrations of either 3-picolylamine (a) or nicotinic acid (b). […] Dots represent the average of three independent measurements with standard deviations shown as error bars.
Selection experiments with NAD^+ auxotrophic strains are prone to contamination with unwanted NAD^+ sources and therefore demand special preparation of the precultures and medium. For the precultures, all tested strains were incubated overnight in MS minimal medium supplemented with 0.5% glucose, 1 mM MgSO4, 0.4 mM L-leucine and 5 μM nicotinic acid. To guarantee complete consumption of nicotinic acid, precultures were then diluted 100-fold in MS minimal medium supplemented only with 0.5% glucose, 1 mM MgSO4 and 0.4 mM L-leucine, but no additional NAD^+ source. Following an overnight incubation period, NAD^+-deprived cells were washed twice in the same medium and used for growth assays.
To prepare the medium for final growth assays, MS minimal medium was supplemented with 0.5% glucose, 1 mM MgSO4, 0.4 mM L-leucine and 25 μM N-picolyl-sulfobutyramide (see below for description of synthesis). To remove all NAD^+ contaminants, the medium was inoculated overnight with strain TK090, which can utilize free NAD^+ precursors, but cannot take up or hydrolyze N-picolyl-sulfobutyramide due to the absence of SsuABC and PnGGT*. After an overnight incubation period, cells were separated from the medium by centrifugation and the supernatant was filtered using a Minisart 0.22 μm High Flow Syringe Filter (Sartorius, Goettingen, Germany). The filtered supernatant was then supplemented with the respective antibiotics and inducers and used for growth assays.

The subject of another data set is BW25113 ΔleuB (TK080). The data set can be described thus: Growth on different sulfur sources. Conditions: 1 mM sulfur source, minimal medium, 0.5% glucose, 0.4 mM leucine. It is filed as cell-based, E. coli. The procedure: FIG. 21: Growth of E. coli on sulfonates. Strains TK080 (a; BW25113 ΔleuB) and TK082 (b; BW25113 ΔleuB ΔssuEADCB ΔtauD) were grown in MS minimal medium supplemented with 0.5% glucose, 0.4 mM L-leucine, 1 mM MgCl2 and 1 mM of a sulfur source. TK080 was able to use the majority of the tested sulfur sources with a similar efficiency as sulfate. […] Dots represent the average of three independent measurements with standard deviations shown as error bars.
For the experiments relating to the sulfonate based synthetic transport system, unless stated otherwise, growth experiments in selective medium were carried out in sulfur free MS minimal medium (4 mM citric acid, 1 mM MgCl2, 20 mM NH4Cl, 50 mM KH2PO4 and 1×NTA mix (10 μM nitrilotriacetic acid, 3 μM CaCl2, 3 μM FeCl3, 1 μM MnCl2, 0.3 μM ZnCl2, 0.3 μM H3B3, 0.3 μM CrC3, 0.3 μM COCl2, 0.3 μM CuCl2, 0.3 μM Ni2C, 0.3 μM Na2MoO4, 0.3 μM Na2SeO3)) supplemented with 0.5% glucose. MgSO4 (1 mM), MgCl2 (1 mM), L-leucine (0.4 mM), IPTG (0.5 mM), aTc (100 ng mL-1), nicotinic acid (various concentrations), 3-picolylamine (various concentrations) and sulfonates (various concentrations) as indicated in the text. […] Synthesis schemes for sulfobutanoyl-p-nitroanilide and other sulfonates are given below.
The sulfonate transporters SsuABC and TauABC transport a wide variety of sulfonate compounds (Eichhorn et al., 2000) and can thus be exploited for the present synthetic transport system. As such, the uptake and utilization of sulfobutanoyl-L-leucine was assessed. The leucine auxotrophic strain BW25113 ΔleuB was tested for growth in minimal medium supplemented with 0.5% glucose, 0.4 mM leucine, 0.4 mM isoleucine and 1 mM of a sulfur-containing compound as the sole sulfur source.

The test system of another data set is TK088[pSsuABC]. Description: Growth of histidine auxotrophic strain in liquid medium. The format is cell-based, E. coli. To be noted: liquid MS minimal medium, 0.5 mM compound, pACT3 versus pPnGGT*. The procedure: FIG. 22: Identification of GGT* activity and refactoring of the ssuABC operon. (a) Cell free extracts of strain TK018 synthesizing either EcGGT, EcGGT D433N, PnGGT or PnGGT D405N were incubated with 2 mM of the substrates γ-glutamyl-p-nitroanilide or sulfobutanoyl-p-nitroanilide (5), respectively. The release of 4-nitroaniline was quantified by measuring the absorption at 410 nm. (b) Plasmid map of the three-dimensional RBS-library for refactoring the ssuABC operon using 144 RBS variants per gene. RBS library sequences are underlined. Arrows point towards the final RBS sequences observed in plasmid pSsuABC. […] (e) Growth of strain TK088[pSsuABC]transformed with the empty vector pACT3 (black circles) or plasmid pPnGGT* (white circles) in liquid MS minimal medium supplemented with 0.5% glucose, 1 mM MgSO4, 0.4 mM L-leucine, 0.5 mM IPTG, 100 ng ml^−1 aTc and 0.5 mM sulfobutanoyl-L-histidine. Bars and dots from panels (a), (d) and (e) represent the average of three independent measurements with standard deviations shown as error bars. […]

In the next data set the test system is TK082. Description: In vivo hydrolysis of sulfobutanoyl-p-nitroanilide and sulfobutanoyl-AMC. It is filed as cell-based, E. coli. Here is the method:
Strain TK082 was transformed with plasmids as indicated in the text and grown at 37° C. in MS minimal medium supplemented with 0.5% glucose, 1 mM MgSO4 and 0.4 mM L-leucine to an OD600 of 0.5. At that stage, the synthesis of PnGGT* and/or SsuABC was induced for 2 hours by adding 0.5 mM IPTG and 100 ng mL^−1 aTc. Following this synthesis period, cells were washed in the same medium to remove proteins that had been released into the medium by cell lysis. After an additional centrifugation step, cells were resuspended in MS minimal medium supplemented with 0.5% glucose, 1 mM MgSO4, 0.4 mM L-leucine, 0.5 mM IPTG, 100 ng mL^−1 aTc and 0.5 mM sulfobutanoyl-p-nitroanilide or sulfobutanoyl-AMC (see below for description of synthesis) and incubated in a Tecan Infinite 200 Pro plate reader at 37° C. To monitor cell density and the release of 4-nitroaniline, absorbance was constantly measured at 600 nm and 410 nm. The release of AMC was monitored by measuring the fluorescence at λex=350 nm and λem=450 nm. To determine the influence of competition for the sulfonate transporter SsuABC, different concentrations of pentanesulfonate (Sigma Aldrich) were added to the medium.

Substrate in data set [1]: CC(C)C[C@H](NC(=O)CCCS(=O)(=O)O)C(=O)O
The data set can be described thus: purified protein, by the assay type. To be noted: other: kinetic studies cited in Example 11, conditions not given.

With `NCc1cccnc1` [3-picolylamine], in the data set with TK090 (MS minimal medium), the “concentration necessary to complement the NAD+ auxotrophy compared to nicotinic acid” value is listed as 500 to 1000 fold and the “concentration needed to support growth as NAD+ source” value was “above 50 μM”. In the data set on TK090, the “growth with compound as sole source of NAD+” value was “no growth was observed”.
Take `O=C(CCCS(=O)(=O)O)N[C@@H](Cc1c[nH]cn1)C(=O)O` [sulfobutanoyl-L-histidine]: the “growth with compound as sole sulfur source” value in the data set on BW25113 ΔleuB (TK080) is “comparable efficiencies”. Also, the “growth with compound as sole histidine source” value in the data set on TK088[pSsuABC] was “Entirely equivalent results”; in the data set on TK088[pSsuABC] (listed as sulfubutanoyl-L-histidine) it was “grew significantly faster and to higher cell densities”.
`O=C(O)c1cccnc1` [nicotinic acid]: the “concentration needed to support growth as NAD+ source” value with TK090 (MS minimal medium) was “sub-micromolar concentrations”.
On to `CCCCCS(=O)(=O)O` [pentanesulfonate, reference compound], for which, in the data set with TK082 (TK082[pSsuABC, pPnGGT*]), the “effect of competitor on release of 4-nitroaniline from 0.5 mM sulfobutanoyl-p-nitroanilide” value was “sufficient to slow down the release of 4-nitroaniline” and the “effect of competitor on release of AMC from 0.5 mM sulfobutanoyl-AMC” value was “sufficient to slow down the release of AMC in the presence of SsuABC”.
On to `O=C(CCCS(=O)(=O)[O-])NCc1cccnc1.[Na+]` [N-picolyl-sulfobutyramide, N-(3-Pyridinylmethyl)sulfobutyramide sodium salt], for which the “growth with compound as sole source of NAD+” value in the data set on TK090 was “only observed when both the sulfonate transporter SsuABC and PnGGT* were synthesized simultaneously”.
Regarding `Cc1cc(=O)oc2cc(NC(=O)CCCS(=O)(=O)O)ccc12` [sulfobutanoyl-AMC, N-(4-Methyl-2-oxo-2H-1-benzopyran-7-yl)sulfobutyramide], the “growth with compound as sole sulfur source” value in the data set on BW25113 ΔleuB (TK080) is “utilized with a lower efficiency”. Besides, in the data set with TK082 (0.5 mM compound, different plasmid combinations), the “in vivo release of AMC from the compound” value is “some release of the dye was detected in a strain expressing only PnGGT*”.

B1: PnGGT ΔN24 D405N (Pseudomonas nitroreducens; D405N) (protein)
chain: MRGSHHHHHHGSACELTLDGGAVAAPDQYGAKVAAEILKKGGNAVDAAVATAFTLAVTYPEAGNIGGGGFMTLYVDGKPYFLDYREIAPKAATKTMYLNEKGEVIENLSLVGAKAAGVPGTVMGLWEAHQRFGKLKWSELLTPAIGYAQTGFKVADQQYQYRQDAIALFNGKTNFGDYFGTMKPGEVFKQPELAKTLERIADKGPDDFYKGETAKLLIAQMKQDGGLITSDDLVDYQAKWREPMRIDWQGNTLYTAPLPSSGGIALAQLIGIKEQRAADFKGVELNSAKYIHLLSEIEKRVFADRADYLGDPQFSKVPVAQLTDPKYIAKRAGEVNPDAISATEKVRPGLEPHQTTHFSIVDKDGNAVSNTYTLNWDFGSGVVVKGAGFLLNDEMDNFSSKPGVANAFGVVGSDANAIEPGKRMLSSMSPSIVTRDGHVSLVLGTPGGSRIFTSIFQVLNNVYDFHLPLEKAVAAQRVHHQLLPKDTIYYDAYAPLPGKVADELKAMGYTLEDQGWNMGDIQAIRVNGKALETASDPRGRGVGMVVKP
As to B1, the Km in data set [1] came to 734 µM.

These data come from US11661398B2, “Cellular transport system for transferring a sulfonic acid construct carrying a cargo into the cytoplasm of a cell” (Scientist of Fortune, S.A., priority 2017, dated 2023).
